# Measurements taken from patent US7429579B2, “Tetrahydrobenzazepine derivatives useful as modulators of dopamine D3 receptors (antipsychotic agents)” (SmithKline Beecham, PLC, priority 2000, dated 2008).
# Molecular target: T1, dopamine D3 receptor (Homo sapiens, UniProt P35462)
# T1 construct: expressed in transfected cells; host or cells: CHO cells (crude cell membranes)
# Test: Binding experiments on cloned dopamine receptors: displacement of [125I]-Iodosulpride
# Conditions: cloned human D3 receptor expressed in CHO cells, [125I]-Iodosulpride displacement; pKi accurate to about ±0.2-0.3
# Description: Binding Experiments on Cloned Dopamine (e.g. D2, D3 and D4) Receptors
# Cultures were grown as monolayers or in suspension in standard cell culture media. Cells were recovered by scraping (from monolayers) or by centrifugation (from suspension cultures), and were washed two or three times by suspension in phosphate buffered saline followed by collection by centrifugation. Cell pellets were stored frozen at −80° C. Crude cell membranes were prepared by homogenisation followed by high-speed centrifugation, and characterisation of cloned receptors achieved by radioligand binding.
# Preparation of Cho Cell Membranes: Cell Pellets were Gently Thawed at Room temperature, and resuspended in about 20 volumes of ice-cold Extraction buffer; 5 mM EDTA, 50 mM Trizma pre-set crystals (pH7.4@37° C.), 1 mM MgCl2, 5 mM KCl and 120 mM NaCl. The suspension was homogenised using an Ultra-Turrax at full speed for 15 seconds. The homogenate was centrifuged at 18,000 r.p.m for 15 min at 4° C. in a Sorvall RC5C centrifuge. Supernatant was discarded, and homogenate re-suspended in extraction buffer then centrifugation was repeated. The final pellet was resuspended in 50 mM Trizma pre-set crystals (pH 7.4 @ 37° C.) and stored in 1 ml aliquot tubes at −80° C. (D2=3.0E+08 cells, D3=7.0E+07 cells and D4=1.0E+08 cells).
# The total volume is 0.2 ml and incubated in a water bath at 37° C. for 40 minutes. Following incubation, samples were filtered onto GF/B Unifilters using a Can berra Packard Filtermate, and washed four times with ice-cold 50 mM Trizma pre-set crystals (pH 7.4 @ 37° C.). The radioactivity on the filters was measured using a Canberra Packard Topcount Scintillation counter. […] For competition curves, 10 serial log concentrations of competing cold drug were used (Dilution range: 10 μM-10 pM). Competition curves were analysed using Inflexion, an iterative curve fitting programme in Excel. Results were expressed as pKi values where pKi=−log 10 [Ki].
# T1 sequence (P35462 whole entry): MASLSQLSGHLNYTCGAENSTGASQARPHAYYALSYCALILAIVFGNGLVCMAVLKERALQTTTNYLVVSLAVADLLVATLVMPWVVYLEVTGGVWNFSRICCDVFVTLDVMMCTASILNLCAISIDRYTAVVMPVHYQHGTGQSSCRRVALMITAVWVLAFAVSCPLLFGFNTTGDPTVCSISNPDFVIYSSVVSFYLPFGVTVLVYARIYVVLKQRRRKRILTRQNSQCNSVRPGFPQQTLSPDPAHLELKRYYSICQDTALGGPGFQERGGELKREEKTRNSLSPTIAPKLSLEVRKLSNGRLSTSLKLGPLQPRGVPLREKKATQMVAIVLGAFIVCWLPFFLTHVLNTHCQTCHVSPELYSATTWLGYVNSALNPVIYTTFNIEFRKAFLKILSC
smiles,measurement,value
"CS(=O)(=O)Oc1ccc2c(c1)CCN(CCCSc1nc(-c3ccccc3)c(-c3ccccc3)[nH]1)CC2 [Example 22, 3-{3-[(4,5-diphenyl-1H-imidazol-2-yl)thio]propyl}-2,3,4,5-tetrahydro-1H-3-benzazepin-7-yl methanesulfonate]",Ki,0.316 to 10 nM
"Cc1cnc(-c2ccc3c(c2)CCN(CCCSc2nnc(-c4ccc5ncccc5c4)n2C)CC3)o1 [Example 61, 7-(5-methyl-1,3-oxazol-2-yl)-3-(3-{[4-methyl-5-(6-quinolinyl)-4H-1,2,4-triazol-3-yl]thio}propyl)-2,3,4,5-tetrahydro-1H-3-benzazepine]",Ki,0.316 to 10 nM
"CCS(=O)(=O)c1ccc2c(c1)CCN(CCCSc1nnc(-c3cc4ccccc4s3)n1C)CC2 [Example 91, 3-(3-{[5-(1-benzothien-2-yl)-4-methyl-4H-1,2,4-triazol-3-yl]thio}propyl)-7-(ethylsulfonyl)-2,3,4,5-tetrahydro-1H-3-benzazepine]",Ki,0.316 to 10 nM
"Cn1c(SCCCN2CCc3ccc(S(=O)(=O)N4CCOCC4)cc3CC2)nnc1-c1ccc(F)cc1F [Example 70, 3-(3-{[5-(2,4-difluorophenyl)-4-methyl-4H-1,2,4-triazol-3-yl]thio}propyl)-7-(4-morpholinylsulfonyl)-2,3,4,5-tetrahydro-1H-3-benzazepine]",Ki,0.316 to 10 nM
"Cc1ccc2c(-c3nnc(SCCCN4CCc5ccc(-c6cc(C)on6)cc5CC4)n3C)ccc(F)c2n1 [Example 137, 3-(3-{[5-(8-fluoro-2-methyl-5-quinolinyl)-4-methyl-4H-1,2,4-triazol-3-yl]thio}propyl)-7-(5-methyl-3-isoxazolyl)-2,3,4,5-tetrahydro-1H-3-benzazepine]",Ki,0.316 to 10 nM
"Cc1cc(-c2ccc3c(c2)CCN(CCCSc2nnc(-c4ccc(F)cc4F)n2C)CC3)no1 [Example 131, 3-(3-{[5-(2,4-difluorophenyl)-4-methyl-4H-1,2,4-triazol-3-yl]thio}propyl)-7-(5-methyl-3-isoxazolyl)-2,3,4,5-tetrahydro-1H-3-benzazepine]",Ki,0.316 to 10 nM
